# Measured values as given in paper PMC6130543, “Immunomodulatory activities of isolated compounds from the root-bark of Cussonia arborea” (Pharmaceutical Biology, 2017).
# Read-outs that look alike come from different tables or passages of the source.
# Key:
# [1] = system: serum opsonized zymosan activated whole blood phagocytes (intracellular ROS production); assay: Oxidative burst assay (luminol-enhanced chemiluminescence); format: cell-based, human; conditions: for IC50: read-out: ROS inhibition (IC50± SD µg/mL); for inhibition of production of ROS (in words): zymosan activated whole blood phagocytes, 1-100 µg/mL
# [2] = system: phytoheamagglutinin (PHA) activated T-cells; assay: 3H-Thymidine incorporated T-cell proliferation assay; format: cell-based, human; conditions: for IC50: read-out: T-cell proliferation inhibition (IC50± SD µg/mL); for inhibition of T-cell proliferation (in words): PHA activated T-cells, 1-100 µg/mL
# Protocol: Lymphocytes were isolated from human heparinized blood. Briefly 10 mL of blood was aseptically collected in heparin containing tube from healthy volunteer. Blood was then mixed with equal volume (1:1) of incomplete RPMI (Roswell Park Memorial Institute) media in 50 mL sterile falcon tube. Lymphocyte separation media (LSM) (5 mL) was added into two sterile 15 mL falcon tubes and 10 mL of the mixture containing blood and RPMI was gently layered on LSM in each tube. Tubes were then centrifuged at 400 g for 20 min at room temperature. The buffy layer appeared at the interface of LSM and plasma was carefully collected and washed at 4 °C for 10 min at 300 g. The supernatant was discarded and pellet containing peripheral blood mononuclear cells (PBMNCs) was collected. Cell viability and counting was performed using trypan blue dye. ^3H-Thymidine incorporated T-cell proliferation assay was performed as described by […] et al. ([2009]). […] After that 50 μL of isolated PBMNCs were added at a concentration of (2 × 10^6 cell/mL). Cells were then stimulated by adding 50 μL of 7.5 μg/mL […]) which acts as mitogen only for T-cells among other PBMNCs. […] The wells received 50 μL cells and 150 μL of 5% FCS/RPMI served as negative control where as positive control contains 50 μL cells, 50 μL of PHA-L and 100 μL of 5% FCS/RPMI. […] Plates were then incubated for 72 h at 37 °C in 5% CO2 incubator. After 72 h, cultures were pulsed with 25 μL of 0.5 μCi/well ^3H-thymidine [Hartmann Analytic, Braunschweig, Germany], and plates were further incubated for 18 h. After incubation cells were harvested using a glass fibre filter and cell harvester [Inotech, Dottikon, Switzerland]. The level of the ^3H-thymidine incorporated into the cells was measured by a LS65000 liquid scintillation counter [Beckman coulter, Fullerton, CA, USA]. Results were expressed as mean count per minutes (CPM). The 50% inhibitory concentration (IC50) values were calculated for all tested compounds.
# [3] = system: whole blood lymphocyte proliferation; set-up: method as in Magee et al. [2002]; conditions: similar work; ref Magee et al. [2002]; cited from earlier work
# MTT cytotoxicity assay = format: cell-based; conditions: mouse
# Protocol: (§1) Cytotoxicity of test compounds on NIH-3T3 fibroblast cells (ATCC, Manassas, VA, USA) was evaluated by using the standard MTT colorimetric assay. Briefly 100 μL of 5 × 10^4 cells/mL in Dulbacco’s modified eagles medium (DMEM) supplemented with 10% foetal bovine serum (FBS) were plated into 96-wells flat bottom plate and incubated overnight at 37 °C in 5% CO2. Three different concentrations of test compound (1, 10 and 100 µg/mL) were added to the plate in triplicates and incubated for 48 h. 0.5 mg/mL MTT (50 µL) was added to each well, the plate was then further incubated for 4 h. MTT was aspirated and 100 µL of dimethyl sulfoxide (DMSO) was then added to each well. The extent of MTT reduction to formazan within cells was calculated by measuring the absorbance at 540 nm, using spectrophotometer (Spectra Max plus, Molecular Devices, CA, USA). The cytotoxic activity was recorded as concentration causing 50% growth inhibition (IC50) for 3T3 cells. Cycloheximide was used as standard drug.
# NIH-3T3 fibroblast cells = assay: MTT cytotoxicity assay; format: cell-based; conditions: MTT, 48 h; three doses (1, 10 and 100 µg/mL); mean ± SD of three determinations
# Protocol: as §1
# [4] = zymosan activated human whole blood phagocytes, luminol probe, three doses (1, 10 and 100 µg/mL), mean ± SD of three determinations
# [5] = T-cell, PHA-L activated human T-cells, 72 h + 18 h 3H-thymidine, three doses (1, 10 and 100 µg/mL), mean ± SD of three determinations
# [6] = MTT, 48 h, three doses (1, 10 and 100 µg/mL), mean ± SD of three determinations, read-out: Cytotoxicity on NIH 3T3-cells (IC50± SD µg/mL)
compound,measurement,setting,value
"CC(C)Cc1ccc(C(C)C(=O)O)cc1 (centres unmarked) [Ibuprofen, reference compound]",IC50,[1]; [4],11.2 ± 1.9 µg/mL
"C[C@]12C=CC(=O)C=C1CC[C@@H]1[C@@H]2[C@@H](O)C[C@@]2(C)[C@H]1CC[C@]2(O)C(=O)CO [Prednisolone, prednisolone, reference compound]",inhibition at 0.62 µg/mL,"[2]; Homo sapiens, T-cell, at lowest tested concentration (0.62 µg/mL), PHA activator",64.3 ± 2%
same,IC50,[2]; [5],< 0.62 µg/mL
same,IC50 of prednisolone (lymphocyte proliferation),[3],0.0388 µg/mL
"CC[C@H](/C=C/[C@@H](C)[C@H]1CC[C@H]2[C@@H]3CC=C4C[C@@H](O)CC[C@]4(C)[C@H]3CC[C@]12C)C(C)C [Compound 3, stigmasterol]",IC50,[1]; [4],> 100 µg/mL
same,inhibition of production of ROS (in words),[1],did not inhibit
same,IC50,MTT cytotoxicity assay; [6],> 100 µg/mL
"CC1(C)CC[C@]2(C(=O)O)CC[C@]3(C)C(=CC[C@@H]4[C@@]5(C)CC[C@H](O)[C@@](C)(CO)[C@@H]5CC[C@]43C)[C@@H]2C1 [Compound 1, 3, 23-dihydroxy-12-oleanen-28-oic acid]",IC50,[1]; [4],24.4 ± 4.3 µg/mL
same,inhibition of T-cell proliferation (in words),[2],no inhibition
same,IC50,[2]; [5],> 100 µg/mL
same,IC50 at 48 h,MTT cytotoxicity assay,> 100 µg/mL
"C[C@@H]1C[C@@H]([C@H](O)CC2CC(=O)NC(=O)C2)C(=O)[C@@H](C)C1 [Cyclohexamide, Cycloheximide, reference compound]",IC50 at 48 h,MTT cytotoxicity assay; [6],0.13 ± 0.02 µg/mL
"CC[C@H](/C=C/[C@@H](C)[C@H]1CC[C@H]2[C@@H]3CC=C4C[C@@H](O[C@@H]5O[C@H](CO)[C@@H](O)[C@H](O)[C@H]5O)CC[C@]4(C)[C@H]3CC[C@]12C)C(C)C [Compound 4, 3-O-β-D-glucopyranosyl stigmasterol]",ROS inhibition (IC50± SD µg/mL),[1]; [4],>100 µg/mL
same,inhibition of production of ROS (in words),[1],did not inhibit
same,inhibition of T-cell proliferation (in words),[2],no inhibition
same,T-cell proliferation inhibition (IC50± SD µg/mL),"[2]; PHA-L activated human T-cells, 72 h + 18 h 3H-thymidine, three doses (1, 10 and 100 µg/mL), mean ± SD of three determinations",>100 µg/mL
same,Cytotoxicity on NIH 3T3-cells (IC50± SD µg/mL),NIH-3T3 fibroblast cells,>100 µg/mL
"CC1(C)CC[C@]2(C(=O)O)CC[C@]3(C)C(=CC[C@@H]4[C@@]5(C)CC[C@H](O)C(C)(C)[C@@H]5CC[C@]43C)[C@@H]2C1 [Compound 2, 3β-hydroxylolean-12-en-28-oic]",IC50,[1]; [4],37.5 ± 0.1 µg/mL
same,IC50,[2]; [5],12.6 ± 0.4 µg/mL
same,IC50 at 48 h,"MTT cytotoxicity assay; NIH-3T3 fibroblast cells, MTT, 48 h, three doses (1, 10 and 100 µg/mL), mean ± SD of three determinations, read-out: Cytotoxicity on NIH 3T3-cells (IC50± SD µg/mL)",> 100 µg/mL
